“And” between values parts separate entries of the source, which are not always exact repeats. Identical values can stand only once. Toxic doses and inconclusive results are not listed. Rule for the calls: active = survival T/C of 150% or more; inactive = T/C below 125% in these data.
System: CD2F1 mice, L1210 leukemia ip, survival T/C
Assay: NCI In Vivo Anticancer Drug Screen. Data for tumor model L1210 Leukemia (intraperitoneal) in CD2F1 (CDF1) mice
Conditions: higher = longer survival
How it was run: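 Ratio T/C, where T is the treated-group value and C the vehicle-dosed control value, from mice implanted with a transplantable tumor.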

[1] = endpoint: mean survival time, dose: 25.0 mg/kg/injection, schedule: Q01DX009 (ip), vehicle: saline with Tween-80
[2] = endpoint: mean survival time, dose: 50.0 mg/kg/injection, schedule: Q01DX009 (ip), vehicle: saline with Tween-80
[3] = endpoint: mean survival time, dose: 100.0 mg/kg/injection, schedule: Q01DX009 (ip), vehicle: saline with Tween-80
[4] = endpoint: mean survival time, dose: 50.0 mg/kg/injection, schedule: Q04DX003 (ip), vehicle: saline with Tween-80
[5] = endpoint: mean survival time, dose: 100.0 mg/kg/injection, schedule: Q04DX003 (ip), vehicle: saline with Tween-80
[6] = endpoint: mean survival time, dose: 200.0 mg/kg/injection, schedule: Q04DX003 (ip), vehicle: saline with Tween-80
[7] = endpoint: mean survival time, dose: 400.0 mg/kg/injection, schedule: Q04DX003 (ip), vehicle: saline with Tween-80
[8] = endpoint: mean survival time, dose: 12.5 mg/kg/injection, schedule: Q01DX005 (ip), vehicle: water
[9] = endpoint: mean survival time, dose: 25.0 mg/kg/injection, schedule: Q01DX005 (ip), vehicle: water
[10] = endpoint: mean survival time, dose: 50.0 mg/kg/injection, schedule: Q01DX005 (ip), vehicle: water
[11] = endpoint: mean survival time, dose: 100.0 mg/kg/injection, schedule: Q01DX001 (ip), vehicle: saline with Tween-80
[12] = endpoint: mean survival time, dose: 200.0 mg/kg/injection, schedule: Q01DX001 (ip), vehicle: saline with Tween-80
[13] = endpoint: mean survival time, dose: 200.0 mg/kg/injection, schedule: Q01DX009 (ip), vehicle: saline with Tween-80
[14] = endpoint: mean survival time, dose: 400.0 mg/kg/injection, schedule: Q01DX001 (ip), vehicle: saline with Tween-80
[15] = endpoint: mean survival time, dose: 400.0 mg/kg/injection, schedule: Q01DX009 (ip), vehicle: saline with Tween-80
[16] = endpoint: mean survival time, dose: 50.0 mg/kg/injection, schedule: Q01DX001 (ip), vehicle: saline with Tween-80
[17] = endpoint: mean survival time, dose: 100.0 mg/kg/injection, schedule: Q04DX002 (ip), vehicle: saline with Tween-80
[18] = endpoint: mean survival time, dose: 200.0 mg/kg/injection, schedule: Q04DX002 (ip), vehicle: saline with Tween-80
[19] = endpoint: mean survival time, dose: 400.0 mg/kg/injection, schedule: Q04DX002 (ip), vehicle: saline with Tween-80
[20] = endpoint: mean survival time, dose: 100.0 mg/kg/injection, schedule: Q04DX003 (ip), vehicle: saline
[21] = endpoint: mean survival time, dose: 200.0 mg/kg/injection, schedule: Q04DX003 (ip), vehicle: saline
[22] = endpoint: mean survival time, dose: 100.0 mg/kg/injection, schedule: Q01DX009 (ip), vehicle: saline
[23] = endpoint: mean survival time, dose: 200.0 mg/kg/injection, schedule: Q01DX009 (ip), vehicle: saline

Measured: T/C

CC(=O)c1ccccc1C(C)C
inactive: [1] 91 % of control | [2] 96 % of control | [3] 94 % of control

COc1ccc2c(c1)CCC1(C)C2=CC(=O)/C1=C\[O-].COc1ccc2c(c1)CCC1(C)C2=CC(=O)/C1=C\[O-].[Cu+2] (stereo not drawn)
inactive: endpoint: mean survival time, dose: 25.0 mg/kg/injection, schedule: Q04DX003 (ip), vehicle: saline with Tween-80 96 % of control | [4] 87 % of control | [5] 86 % of control

CS(=O)(=O)c1ncc[nH]1
inactive: [5] 100 % of control | [6] 109 % of control | [7] 109 % of control

O=[n+]1ccn2cc3ccccc3cc2c1
inactive: endpoint: mean survival time, dose: 12.5 mg/kg/injection, schedule: Q04DX003 (ip), vehicle: saline with Tween-80 86 % of control | [4] 100 % of control

O=C=NC(c1ccccc1)(c1ccccc1)c1ccccc1
inactive: [5] 95 % of control and 99 % of control | [6] 103 % of control and 104 % of control | [7] 97 % of control

C/C(=N\NC(=S)N1CC2CCC(CC2)C1)c1cccc(C)n1
inactive: endpoint: median survival time, dose: 3.12 mg/kg/injection, schedule: Q01DX005 (ip), vehicle: saline with Tween-80 103 % of control | endpoint: median survival time, dose: 6.25 mg/kg/injection, schedule: Q01DX005 (ip), vehicle: saline with Tween-80 108 % of control | endpoint: median survival time, dose: 12.5 mg/kg/injection, schedule: Q01DX005 (ip), vehicle: saline with Tween-80 119 % of control | endpoint: median survival time, dose: 25.0 mg/kg/injection, schedule: Q01DX005 (ip), vehicle: saline with Tween-80 102 % of control and 108 % of control

Cn1ncc2c(N)nc(-c3ccccn3)nc21
inactive: [8] 97 % of control | [9] 94 % of control | [10] 91 % of control | endpoint: mean survival time, dose: 100.0 mg/kg/injection, schedule: Q01DX005 (ip), vehicle: water 94 % of control

COC1C(O)C(C)OC(OC2CC(O)C3(C)C(CCC4C3CCC3(C)C(C5=CC(=O)OC5)CCC43O)C2)C1O (stereo not drawn) (tested in a mixture with another compound)
inactive: endpoint: mean survival time, dose: 50.0 mg/kg/injection, schedule: Q01DX001 (ip), vehicle: saline sonified 87 % of control

O=C1c2ccccc2C(=O)N1CBr
inactive: endpoint: mean survival time, dose: 12.5 mg/kg/injection, schedule: Q01DX009 (ip), vehicle: saline with Tween-80 100 % of control | [1] 97 % of control | [2] 98 % of control

O=C(O)/C=C/C(=O)Nc1ccc(C(=O)O)cc1
inactive: [11] 94 % of control | [3] 91 % of control | [12] 92 % of control | [13] 96 % of control | [14] 92 % of control | [15] 89 % of control

ClC1C(c2ccccc2)=C(c2ccccc2)c2ccccc21 (stereo not drawn)
inactive: [11] 87 % of control | [12] 91 % of control | [13] 101 % of control | [15] 98 % of control

Cc1nc2c(nc1C)C(=O)C(N1CCOCC1)=CC2=O
inactive: endpoint: mean survival time, dose: 6.25 mg/kg/injection, schedule: Q04DX003 (ip), vehicle: saline 100 % of control | endpoint: mean survival time, dose: 12.5 mg/kg/injection, schedule: Q01DX001 (ip), vehicle: saline 87 % of control | endpoint: mean survival time, dose: 12.5 mg/kg/injection, schedule: Q04DX003 (ip), vehicle: saline 100 % of control | endpoint: mean survival time, dose: 25.0 mg/kg/injection, schedule: Q01DX001 (ip), vehicle: saline 107 % of control | endpoint: mean survival time, dose: 25.0 mg/kg/injection, schedule: Q04DX003 (ip), vehicle: saline 98 % of control | endpoint: mean survival time, dose: 35.0 mg/kg/injection, schedule: Q04DX003 (ip), vehicle: saline 88 % of control | endpoint: mean survival time, dose: 55.0 mg/kg/injection, schedule: Q04DX003 (ip), vehicle: saline 91 % of control | endpoint: mean survival time, dose: 80.0 mg/kg/injection, schedule: Q04DX003 (ip), vehicle: saline 86 % of control

NCC(O)O.NCC(O)O.NCC(O)O.NCC(O)O.[Mo].[Mo]
inactive: [11] 93 % of control | [12] 89 % of control | [14] 104 % of control

CC(=O)C1CCC2CC3CCCCC3N(C(C)=O)C2C1 (stereo not drawn)
inactive: [16] 107 % of control | [11] 105 % of control | [12] 100 % of control

CCCCC(C#N)C(=O)OCC (stereo not drawn)
inactive: [5] 96 % of control | [6] 93 % of control

O=C(O)CC1=C(c2ccc3ccccc3c2)CCC1=O
inactive: endpoint: mean survival time, dose: 100.0 mg/kg/injection, schedule: Q01DX001 (ip), vehicle: saline 98 % of control | endpoint: mean survival time, dose: 200.0 mg/kg/injection, schedule: Q01DX001 (ip), vehicle: saline 98 % of control | endpoint: mean survival time, dose: 400.0 mg/kg/injection, schedule: Q01DX001 (ip), vehicle: saline 98 % of control

COc1ccccc1NC(=O)Nc1ccc(Cl)cc1OC
inactive: [17] 87 % of control | [18] 94 % of control | [19] 97 % of control

O=C(Nc1ccc(-c2cc(-c3ccccc3)on2)cc1)c1ccccc1
inactive: [5] 90 % of control | [6] 88 % of control | [7] 88 % of control

O=S(Nc1ccccc1)Nc1ccccc1
inactive: [3] 95 % of control | [5] 97 % of control | [6] 94 % of control | [7] 97 % of control

CNC(=O)Oc1cccc(NC(=O)OCCCCl)c1
inactive: [11] 100 % of control | [12] 105 % of control | [14] 105 % of control

CCN(CCP(c1ccccc1)c1ccccc1)CCP(c1ccccc1)c1ccccc1
inactive: endpoint: mean survival time, dose: 150.0 mg/kg/injection, schedule: Q01DX001 (ip), vehicle: other 110 % of control | endpoint: mean survival time, dose: 300.0 mg/kg/injection, schedule: Q01DX001 (ip), vehicle: other 115 % of control

CC(=O)Nc1ccc(F)cc1
inactive: [20] 105 % of control | [21] 100 % of control | endpoint: mean survival time, dose: 400.0 mg/kg/injection, schedule: Q04DX003 (ip), vehicle: saline 95 % of control

NC(N)=NNC(=O)C(=O)O
inactive: [22] 98 % of control | [23] 110 % of control | endpoint: mean survival time, dose: 400.0 mg/kg/injection, schedule: Q01DX009 (ip), vehicle: saline 100 % of control

Cc1ccc(S(=O)(=O)N=N/C=C2/C=CC=CN2O)cc1
inactive: endpoint: mean survival time, dose: 20.0 mg/kg/injection, schedule: Q01DX009 (ip), vehicle: Klucel (hydroxypropylcellulose) (HPC) 105 % of control | endpoint: mean survival time, dose: 40.0 mg/kg/injection, schedule: Q01DX009 (ip), vehicle: Klucel (hydroxypropylcellulose) (HPC) 108 % of control | endpoint: mean survival time, dose: 45.0 mg/kg/injection, schedule: Q01DX009 (ip), vehicle: Klucel (hydroxypropylcellulose) (HPC) 114 % of control | endpoint: mean survival time, dose: 87.5 mg/kg/injection, schedule: Q01DX009 (ip), vehicle: Klucel (hydroxypropylcellulose) (HPC) 121 % of control

N#Cc1[nH]nc2ncnc(NC(=O)C(F)(F)F)c12
inactive: endpoint: mean survival time, dose: 6.25 mg/kg/injection, schedule: Q01DX005 (ip), vehicle: water 111 % of control | [8] 96 % of control | [9] 107 % of control | [10] 96 % of control

CCCCCCCCCCCCCCBr
inactive: [2] 96 % of control | [3] 103 % of control | [13] 96 % of control

O=P(O)(O)c1ccc(Oc2ccccc2)cc1
inactive: endpoint: mean survival time, dose: 50.0 mg/kg/injection, schedule: Q04DX003 (ip), vehicle: saline 102 % of control | [20] 93 % of control | [21] 103 % of control

[Br][Pt+2][Br].[NH-]C1CCCCC1[NH-] (stereo not drawn)
inactive: endpoint: mean survival time, dose: 0.78 mg/kg/injection, schedule: Q04DX003 (ip), vehicle: saline with Tween-80 110 % of control | endpoint: mean survival time, dose: 1.56 mg/kg/injection, schedule: Q04DX003 (ip), vehicle: saline with Tween-80 113 % of control

CCN(CC)CCN(CC)C(=O)C(O)(c1ccccc1)c1ccccc1
inactive: endpoint: mean survival time, dose: 50.0 mg/kg/injection, schedule: Q01DX009 (ip), vehicle: saline 98 % of control | [22] 95 % of control | [23] 91 % of control

CCCCCCCCCCCCCCC[N+]1(C)CCSCC1
inactive: endpoint: mean survival time, dose: 25.0 mg/kg/injection, schedule: Q01DX001 (ip), vehicle: saline with Tween-80 100 % of control | [16] 95 % of control

O=S1c2ccccc2-c2ccccc21
inactive: [17] 92 % of control | [18] 100 % of control | [19] 103 % of control

CC(=O)OC(c1ccccc1)C(Cl)(Cl)Cl (stereo not drawn)
inactive: [5] 100 % of control | [6] 105 % of control | [7] 105 % of control
